The text below walks through data of ChEMBL document CHEMBL2073829, “Heterologous expression of a mammalian ABC transporter in plant and its application to phytoremediation” (Plant Mol Biol, 2006).

This series addresses Multidrug resistance-associated protein 1 (Homo sapiens, UniProt P33527). In words: TP_TRANSPORTER: growth inhibition in hMRP1-expressing tobacco. Particulars: nicotiana tabacum, in vivo. In kind it is functional, organism-based, (cultivar) Samsun NN.

Sequence of Multidrug resistance-associated protein 1 (P33527 whole entry): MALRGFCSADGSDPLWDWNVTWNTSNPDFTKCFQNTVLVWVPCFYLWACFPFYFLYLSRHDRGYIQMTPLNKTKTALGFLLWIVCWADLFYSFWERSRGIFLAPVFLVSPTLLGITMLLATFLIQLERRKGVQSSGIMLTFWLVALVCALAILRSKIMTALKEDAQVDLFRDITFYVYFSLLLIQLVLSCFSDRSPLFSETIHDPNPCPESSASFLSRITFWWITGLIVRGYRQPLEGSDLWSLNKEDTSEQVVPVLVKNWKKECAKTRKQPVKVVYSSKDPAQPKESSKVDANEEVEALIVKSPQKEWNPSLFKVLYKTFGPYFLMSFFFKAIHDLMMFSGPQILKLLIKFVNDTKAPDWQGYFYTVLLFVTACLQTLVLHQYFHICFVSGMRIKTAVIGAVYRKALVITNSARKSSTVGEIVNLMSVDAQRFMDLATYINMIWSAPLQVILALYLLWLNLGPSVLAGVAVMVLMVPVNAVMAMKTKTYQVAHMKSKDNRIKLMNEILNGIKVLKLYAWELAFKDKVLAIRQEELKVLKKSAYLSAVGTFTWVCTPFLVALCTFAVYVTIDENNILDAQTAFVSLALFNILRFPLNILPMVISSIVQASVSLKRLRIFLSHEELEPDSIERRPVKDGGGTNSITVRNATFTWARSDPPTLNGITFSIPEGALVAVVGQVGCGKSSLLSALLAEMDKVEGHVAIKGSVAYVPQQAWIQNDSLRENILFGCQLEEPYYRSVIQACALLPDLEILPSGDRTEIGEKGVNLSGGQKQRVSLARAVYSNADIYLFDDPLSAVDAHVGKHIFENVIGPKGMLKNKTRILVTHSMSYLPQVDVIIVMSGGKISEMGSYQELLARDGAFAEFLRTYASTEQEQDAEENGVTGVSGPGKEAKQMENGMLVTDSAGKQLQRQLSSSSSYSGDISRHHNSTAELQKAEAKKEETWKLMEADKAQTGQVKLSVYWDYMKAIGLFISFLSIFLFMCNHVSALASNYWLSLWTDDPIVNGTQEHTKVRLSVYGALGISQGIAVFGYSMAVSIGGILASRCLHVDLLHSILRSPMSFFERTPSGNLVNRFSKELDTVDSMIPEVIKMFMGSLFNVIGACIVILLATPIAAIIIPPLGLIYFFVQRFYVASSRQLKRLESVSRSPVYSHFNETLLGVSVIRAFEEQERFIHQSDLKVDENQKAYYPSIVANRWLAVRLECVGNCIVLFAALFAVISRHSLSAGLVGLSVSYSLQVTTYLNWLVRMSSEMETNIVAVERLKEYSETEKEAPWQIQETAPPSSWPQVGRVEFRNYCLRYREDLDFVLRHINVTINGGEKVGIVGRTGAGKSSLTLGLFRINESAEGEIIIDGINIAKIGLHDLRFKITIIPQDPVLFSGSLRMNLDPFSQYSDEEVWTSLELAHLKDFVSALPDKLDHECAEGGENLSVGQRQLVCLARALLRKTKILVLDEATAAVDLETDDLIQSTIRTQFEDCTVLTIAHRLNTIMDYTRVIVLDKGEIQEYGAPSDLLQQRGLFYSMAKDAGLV

With CADMIUM, the Activity entry is “substrate []”.
